Laboratory results reported in ChEMBL document CHEMBL2311510, “A new single-photon emission computed tomography (SPECT) imaging agent for serotonin transporters: [(125)I]Flip-IDAM, (2-((2-((dimethylamino)methyl)-4-iodophenyl)thio)phenyl)methanol” (Bioorg Med Chem Lett, 2013).

Experiments:
[1] = system: Liver; experiment: Biodistribution in Sprague-Dawley rat liver assessed as compound level per organ at 11 uCi, iv measured 30 mins post compound dose; assay type: ADME, organism-based; details: in vivo, 0.5 h
[2] = system: Hypothalamus; experiment: Biodistribution in Sprague-Dawley rat hypothalamus at 11 uCi, iv measured 60 mins post compound dose; assay type: ADME, organism-based; details: in vivo, 1 h
[3] = system: Lung; experiment: Biodistribution in Sprague-Dawley rat lung assessed as compound level per organ at 11 uCi, iv measured 30 mins post compound dose; assay type: ADME, organism-based; details: in vivo, 0.5 h
[4] = system: Striatum; experiment: Biodistribution in Sprague-Dawley rat striatum at 11 uCi, iv measured 2 mins post compound dose; assay type: ADME, organism-based; details: in vivo
[5] = system: Bone; experiment: Biodistribution in Sprague-Dawley rat bone assessed as compound level per organ at 11 uCi, iv measured 30 mins post compound dose; assay type: ADME, organism-based, Bone element; details: in vivo, 0.5 h
[6] = system: Pancreas; experiment: Biodistribution in Sprague-Dawley rat pancreas assessed as compound level per organ at 11 uCi, iv measured 30 mins post compound dose; assay type: ADME, organism-based; details: in vivo, 0.5 h
[7] = system: Muscle tissue; experiment: Biodistribution in Sprague-Dawley rat muscle assessed as compound level per organ at 11 uCi, iv measured 2 mins post compound dose; assay type: ADME, organism-based; details: in vivo
[8] = system: Blood; experiment: Biodistribution in Sprague-Dawley rat blood assessed as compound level per organ at 11 uCi, iv measured 60 mins post compound dose; assay type: ADME, organism-based; details: in vivo, 1 h
[9] = system: Kidney; experiment: Biodistribution in Sprague-Dawley rat kidney assessed as compound level per organ at 11 uCi, iv measured 120 mins post compound dose; assay type: ADME, organism-based; details: in vivo, 2 h
[10] = system: Kidney; experiment: Biodistribution in Sprague-Dawley rat kidney assessed as compound level per organ at 11 uCi, iv measured 30 mins post compound dose; assay type: ADME, organism-based; details: in vivo, 0.5 h
[11] = system: Hippocampus; experiment: Biodistribution in Sprague-Dawley rat hippocampus at 11 uCi, iv measured 120 mins post compound dose; assay type: ADME, organism-based; details: in vivo, 2 h
[12] = system: Muscle tissue; experiment: Biodistribution in Sprague-Dawley rat muscle at 11 uCi, iv measured 120 mins post compound dose; assay type: ADME, organism-based; details: in vivo, 2 h
[13] = system: Hippocampus; experiment: Biodistribution in Sprague-Dawley rat hippocampus at 11 uCi, iv measured 30 mins post compound dose; assay type: ADME, organism-based; details: in vivo, 0.5 h
[14] = system: Liver; experiment: Biodistribution in Sprague-Dawley rat liver at 11 uCi, iv measured 30 mins post compound dose; assay type: ADME, organism-based; details: in vivo, 0.5 h
[15] = system: Muscle tissue; experiment: Biodistribution in Sprague-Dawley rat muscle at 11 uCi, iv measured 30 mins post compound dose; assay type: ADME, organism-based; details: in vivo, 0.5 h
[16] = system: Lung; experiment: Biodistribution in Sprague-Dawley rat lung assessed as compound level per organ at 11 uCi, iv measured 2 mins post compound dose; assay type: ADME, organism-based; details: in vivo
[17] = system: Pancreas; experiment: Biodistribution in Sprague-Dawley rat pancreas assessed as compound level per organ at 11 uCi, iv measured 60 mins post compound dose; assay type: ADME, organism-based; details: in vivo, 1 h
[18] = system: Spleen; experiment: Biodistribution in Sprague-Dawley rat spleen assessed as compound level per organ at 11 uCi, iv measured 120 mins post compound dose; assay type: ADME, organism-based; details: in vivo, 2 h
[19] = system: Blood; experiment: Biodistribution in Sprague-Dawley rat blood assessed as compound level per organ at 11 uCi, iv measured 30 mins post compound dose; assay type: ADME, organism-based; details: in vivo, 0.5 h
[20] = system: Cortex; experiment: Biodistribution in Sprague-Dawley rat cortex at 11 uCi, iv measured 2 mins post compound dose; assay type: ADME, organism-based; details: in vivo
[21] = system: Cerebellum; experiment: Biodistribution in Sprague-Dawley rat cerebellum at 11 uCi, iv measured 2 mins post compound dose; assay type: ADME, organism-based; details: in vivo
[22] = system: Cerebellum; experiment: Biodistribution in Sprague-Dawley rat cerebellum at 11 uCi, iv measured 120 mins post compound dose; assay type: ADME, organism-based; details: in vivo, 2 h
[23] = system: Spleen; experiment: Biodistribution in Sprague-Dawley rat spleen at 11 uCi, iv measured 2 mins post compound dose; assay type: ADME, organism-based; details: in vivo
[24] = system: Nucleic Acid; experiment: Ratio of drug level in hippocampus to cerebellum in Sprague-Dawley rat at 11 uCi, iv measured 120 mins post compound dose; assay type: ADME, organism-based; details: in vivo, 2 h
[25] = system: Heart; experiment: Biodistribution in Sprague-Dawley rat heart assessed as compound level per organ at 11 uCi, iv measured 2 mins post compound dose; assay type: ADME, organism-based; details: in vivo
[26] = system: Pancreas; experiment: Biodistribution in Sprague-Dawley rat pancreas at 11 uCi, iv measured 120 mins post compound dose; assay type: ADME, organism-based; details: in vivo, 2 h
[27] = system: Heart; experiment: Biodistribution in Sprague-Dawley rat heart assessed as compound level per organ at 11 uCi, iv measured 120 mins post compound dose; assay type: ADME, organism-based; details: in vivo, 2 h
[28] = system: Liver; experiment: Biodistribution in Sprague-Dawley rat liver assessed as compound level per organ at 11 uCi, iv measured 120 mins post compound dose; assay type: ADME, organism-based; details: in vivo, 2 h
[29] = system: Pancreas; experiment: Biodistribution in Sprague-Dawley rat pancreas at 11 uCi, iv measured 60 mins post compound dose; assay type: ADME, organism-based; details: in vivo, 1 h
[30] = system: Nucleic Acid; experiment: Ratio of drug level in hippocampus to cerebellum in Sprague-Dawley rat at 11 uCi, iv measured 30 mins post compound dose; assay type: ADME, organism-based; details: in vivo, 0.5 h
[31] = system: Nucleic Acid; experiment: Ratio of drug level in cortex to cerebellum in Sprague-Dawley rat at 11 uCi, iv measured 120 mins post compound dose; assay type: ADME, organism-based; details: in vivo, 2 h
[32] = system: Nucleic Acid; experiment: Ratio of drug level in hippocampus to cerebellum in Sprague-Dawley rat at 11 uCi, iv measured 60 mins post compound dose; assay type: ADME, organism-based; details: in vivo, 1 h
[33] = system: Zone of skin; experiment: Biodistribution in Sprague-Dawley rat skin at 11 uCi, iv measured 30 mins post compound dose; assay type: ADME, organism-based; details: in vivo, 0.5 h
[34] = system: Spleen; experiment: Biodistribution in Sprague-Dawley rat spleen assessed as compound level per organ at 11 uCi, iv measured 30 mins post compound dose; assay type: ADME, organism-based; details: in vivo, 0.5 h
[35] = system: Cortex; experiment: Biodistribution in Sprague-Dawley rat cortex at 11 uCi, iv measured 120 mins post compound dose; assay type: ADME, organism-based; details: in vivo, 2 h
[36] = system: Kidney; experiment: Biodistribution in Sprague-Dawley rat kidney at 11 uCi, iv measured 60 mins post compound dose; assay type: ADME, organism-based; details: in vivo, 1 h
[37] = system: Brain; experiment: Biodistribution in Sprague-Dawley rat brain assessed as compound level per organ at 11 uCi, iv measured 2 mins post compound dose; assay type: ADME, organism-based; details: in vivo
[38] = system: Brain; experiment: Biodistribution in Sprague-Dawley rat brain at 11 uCi, iv measured 30 mins post compound dose; assay type: ADME, organism-based; details: in vivo, 0.5 h
[39] = system: Nucleic Acid; experiment: Ratio of drug level in hippocampus to cerebellum in Sprague-Dawley rat at 11 uCi, iv measured 2 mins post compound dose; assay type: ADME, organism-based; details: in vivo
[40] = system: Kidney; experiment: Biodistribution in Sprague-Dawley rat kidney assessed as compound level per organ at 11 uCi, iv measured 60 mins post compound dose; assay type: ADME, organism-based; details: in vivo, 1 h
[41] = system: Cortex; experiment: Biodistribution in Sprague-Dawley rat cortex at 11 uCi, iv measured 60 mins post compound dose; assay type: ADME, organism-based; details: in vivo, 1 h
[42] = system: Pancreas; experiment: Biodistribution in Sprague-Dawley rat pancreas at 11 uCi, iv measured 2 mins post compound dose; assay type: ADME, organism-based; details: in vivo
[43] = system: Hypothalamus; experiment: Biodistribution in Sprague-Dawley rat hypothalamus at 11 uCi, iv measured 30 mins post compound dose; assay type: ADME, organism-based; details: in vivo, 0.5 h
[44] = system: Nucleic Acid; experiment: Ratio of drug level in hypothalamus to cerebellum in Sprague-Dawley rat at 11 uCi, iv measured 2 mins post compound dose; assay type: ADME, organism-based; details: in vivo
[45] = system: Spleen; experiment: Biodistribution in Sprague-Dawley rat spleen at 11 uCi, iv measured 30 mins post compound dose; assay type: ADME, organism-based; details: in vivo, 0.5 h
[46] = system: Lung; experiment: Biodistribution in Sprague-Dawley rat lung at 11 uCi, iv measured 30 mins post compound dose; assay type: ADME, organism-based; details: in vivo, 0.5 h
[47] = system: Heart; experiment: Biodistribution in Sprague-Dawley rat heart at 11 uCi, iv measured 30 mins post compound dose; assay type: ADME, organism-based; details: in vivo, 0.5 h
[48] = system: Zone of skin; experiment: Biodistribution in Sprague-Dawley rat skin at 11 uCi, iv measured 60 mins post compound dose; assay type: ADME, organism-based; details: in vivo, 1 h
[49] = system: Kidney; experiment: Biodistribution in Sprague-Dawley rat kidney at 11 uCi, iv measured 2 mins post compound dose; assay type: ADME, organism-based; details: in vivo
[50] = system: Blood; experiment: Biodistribution in Sprague-Dawley rat blood assessed as compound level per organ at 11 uCi, iv measured 120 mins post compound dose; assay type: ADME, organism-based; details: in vivo, 2 h
[51] = system: Bone; experiment: Biodistribution in Sprague-Dawley rat bone at 11 uCi, iv measured 2 mins post compound dose; assay type: ADME, organism-based, Bone element; details: in vivo

In the case of CN(C)Cc1cc([125I])ccc1Sc1ccccc1CO, the Drug uptake [1] is reported as 9.09 %ID, the Drug uptake [2] is reported as 0.32 % ID/g and the Drug uptake [3] is reported as 1.5 %ID. It also gave a Drug uptake [4] of 1.28 % ID/g, a Drug uptake [5] of 0.02 %ID and a Drug uptake [6] of 0.26 %ID. It also gave a Drug uptake [7] of 21.9 %ID, a Drug uptake [8] of 3.26 %ID and a Drug uptake [9] of 1.06 %ID. It also gave a Drug uptake [10] of 2.66 %ID, a Drug uptake [11] of 0.08 % ID/g and a Drug uptake [12] of 0.06 % ID/g. For the same compound, the Drug uptake [13] was 0.66 % ID/g, the Drug uptake [14] was 1.28 % ID/g and the Drug uptake [15] was 0.21 % ID/g. It also gave a Drug uptake [16] of 6.52 %ID, a Drug uptake [17] of 0.1 %ID and a Drug uptake [18] of 0.07 %ID. The Drug uptake [19] was 5.07 %ID, the Drug uptake [20] was 1.39 % ID/g and the Drug uptake [21] was 1.5 % ID/g. For the same compound, the Drug uptake [22] was 0.05 % ID/g, the Drug uptake [23] was 1.61 % ID/g and the Ratio [24] was 1.5. The Drug uptake [25] was 1.17 %ID, the Drug uptake [26] was 0.16 % ID/g and the Drug uptake [27] was 0.12 %ID. For the same compound, the Drug uptake [28] was 2.69 %ID, the Drug uptake [29] was 0.28 % ID/g and the Ratio [30] was 2.67. For the same compound, the Ratio [31] was 1.24, the Ratio [32] was 1.83 and the Drug uptake [33] was 0.31 % ID/g. The Drug uptake [34] was 0.23 %ID, the Drug uptake [35] was 0.06 % ID/g and the Drug uptake [36] was 0.72 % ID/g. The Drug uptake [37] was 2.52 %ID, the Drug uptake [38] was 0.53 % ID/g and the Ratio [39] was 0.85. The Drug uptake [40] was 1.44 %ID, the Drug uptake [41] was 0.2 % ID/g and the Drug uptake [42] was 1.52 % ID/g. It also gave a Drug uptake [43] of 1 % ID/g, a Ratio [44] of 1.02 and a Drug uptake [45] of 0.55 % ID/g. For the same compound, the Drug uptake [46] was 0.77 % ID/g, the Drug uptake [47] was 0.38 % ID/g and the Drug uptake [48] was 0.2 % ID/g. It also gave a Drug uptake [49] of 2.6 % ID/g, a Drug uptake [50] of 2.71 %ID and a Drug uptake [51] of 0.6 % ID/g.
